Reference: patent publication US20250333405A1, “ANTAGONISTS OF GPR39 PROTEIN” (VASOCARDEA, INC., priority 2024, published 2025)
Structures can show the parent of a compound that is named as a salt.

Target: T1, human GPR39 receptor (Homo sapiens, UniProt O43194)
T1 construct: PC3 Cells, Expressing the Endogenous Human GPR39 Receptor; endogenous in cells; host or cells: PC3 (human prostate adenocarcinoma) cells
T1 sequence (O43194 1-453): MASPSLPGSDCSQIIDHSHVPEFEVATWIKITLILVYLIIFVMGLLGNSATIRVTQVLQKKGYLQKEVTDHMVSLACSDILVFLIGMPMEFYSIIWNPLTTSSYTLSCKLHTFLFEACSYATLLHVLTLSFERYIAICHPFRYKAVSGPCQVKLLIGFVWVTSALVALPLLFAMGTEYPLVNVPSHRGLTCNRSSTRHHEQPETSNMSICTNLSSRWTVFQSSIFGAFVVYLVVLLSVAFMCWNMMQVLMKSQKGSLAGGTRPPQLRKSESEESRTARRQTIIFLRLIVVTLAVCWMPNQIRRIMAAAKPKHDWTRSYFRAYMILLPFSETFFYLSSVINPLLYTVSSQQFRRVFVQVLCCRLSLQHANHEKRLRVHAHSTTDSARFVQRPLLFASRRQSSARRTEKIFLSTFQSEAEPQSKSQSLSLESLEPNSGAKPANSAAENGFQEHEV
Assay: Intracellular calcium response (FLIPR, Calcium-6) in PC3 cells, antagonism of agonist C3 (TC-G 1008) at EC90
Type: cell-based
Settings: functional pKi (-Log10Ki) by modified Cheng-Prusoff from IC50; PC3 cells endogenously expressing human GPR39; 30 μM ZnCl2; agonist C3 (TC-G 1008) at EC90 1.5 μM; read-out: fpKi activity
Summary of the method: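 Calcium-6-loaded cells in HEPES buffer pH 7.4 were given compound with 30 μM final ZnCl2 (0.32% DMSO) for 10 min, then challenged with 1.5 μM C3. Baseline-subtracted peak fluorescence expressed as % inhibition of the C3 response; IC50 from four-parameter logistic fit, reported as binned fpKi.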

SMILES	Ki
Cc1cc(C(=O)N2CCS(=O)(=O)CC2)c(N2CCCC2)cc1NC(=O)C1CC1 [Example 93, N-[4-(1,1-dioxo-1,4-thiazinane-4-carbonyl)-2-methyl-5-pyrrolidin-1-ylphenyl]cyclopropanecarboxamide]	> 6.31 µM
Cc1cc(-c2ccc(C(=O)N3CCC(F)(F)CC3)c(-c3ccn(C(C)C)n3)c2)[nH]n1 [Example 86, (4,4-difluoro-1-piperidyl)-[2-(1-isopropylpyrazol-3-yl)-4-(5-methyl-1H-pyrazol-3-yl)phenyl]methanone]	≤ 0.0501 µM
O=C(Nc1ccc(C(=O)N2CCS(=O)(=O)CC2)c(-c2ccc(C(F)(F)F)s2)c1)C1CC1 [Example 29, N-[4-(1,1-dioxo-1,4-thiazinane-4-carbonyl)-3-[5-(trifluoromethyl)thiophen-2-yl]phenyl]cyclopropanecarboxamide]	0.316 to 1 µM
Cc1nnc(-c2ccc(C(=O)N3CCC(C)CC3)c(-c3nc(C(F)(F)F)cs3)c2)[nH]1 [Example 62, (4-methyl-1-piperidyl)-[4-(5-methyl-4H-1,2,4-triazol-3-yl)-2-[4-(trifluoromethyl)thiazol-2-yl]phenyl]methanone]	≤ 0.0501 µM
Cc1nnc(-c2ccc(C(=O)N3CCC(F)(F)CC3)c(-c3ccn(C(C)C4CC4)n3)c2)[nH]1 (single isomer, unassigned) [Example 57a, [2-[1-(1R or 1S-cyclopropylethyl)pyrazol-3-yl]-4-(5-methyl-4H-1,2,4-triazol-3-yl)phenyl]-(4,4-difluoro-1-piperidyl)methanone]	≤ 0.0501 µM
CC(C)n1ccc(-c2cc(NC(=O)C3CC3)ccc2C(=O)N2CCC(F)(F)CC2)n1 [Example 23, N-[4-(4,4-difluoropiperidine-1-carbonyl)-3-(1-propan-2-ylpyrazol-3-yl)phenyl]cyclopropanecarboxamide]	≤ 0.0501 µM
CN1CCN(C(=O)c2ccc(NC(=O)C3CC3)cc2-c2cnc(C(F)(F)F)s2)C(c2ccccc2)C1 (racemic) [Example 31, N-[4-(4-methyl-2-phenylpiperazine-1-carbonyl)-3-[2-(trifluoromethyl)-1,3-thiazol-5-yl]phenyl]cyclopropanecarboxamide]	> 6.31 µM
O=C(Nc1ccc(C(=O)N2CCCC2c2ccccc2)c(N2CCCC2)c1)C1CC1 (stereo not shown) [Example 1, N-[4-(2-phenylpyrrolidine-1-carbonyl)-3-pyrrolidin-1-ylphenyl]cyclopropanecarboxamide]	1.26 to 6.31 µM
CC(C)c1cc(-c2ccc(C(=O)N3CCC(F)(F)CC3)c(-c3ccn(C(C)C)n3)c2)[nH]n1 [Example 85, (4,4-difluoro-1-piperidyl)-[2-(1-isopropylpyrazol-3-yl)-4-(5-isopropyl-1H-pyrazol-3-yl)phenyl]methanone]	1.26 to 6.31 µM
O=C(Nc1ccc(C(=O)N2CCS(=O)(=O)CC2)c(C2=CCCC2)c1)C1CC1 [Example 88, N-[3-(cyclopenten-1-yl)-4-(1,1-dioxo-1,4-thiazinane-4-carbonyl)phenyl]cyclopropanecarboxamide]	0.316 to 1 µM
O=C(Nc1ccc(C(=O)N2CCS(=O)(=O)CC2)c(C2CCCC2)c1)C1CC1 [Example 90, N-[3-cyclopentyl-4-(1,1-dioxo-1,4-thiazinane-4-carbonyl)phenyl]cyclopropanecarboxamide]	> 6.31 µM
Cc1nnc(-c2ccc(C(=O)N3CCC(C(F)(F)F)CC3)c(-c3ccn(C(C)(C)C)n3)c2)[nH]1 [Example 53, [2-(1-tert-butylpyrazol-3-yl)-4-(5-methyl-4H-1,2,4-triazol-3-yl)phenyl]-[4-(trifluoromethyl)-1-piperidyl]methanone]	≤ 0.0501 µM
Cc1nnc(-c2ccc(C(=O)N3CCC(C)(F)CC3)c(-c3cccc(C4CC4)n3)c2)[nH]1 [Example 65, [2-(6-cyclopropyl-2-pyridyl)-4-(5-methyl-4H-1,2,4-triazol-3-yl)phenyl]-(4-fluoro-4-methyl-1-piperidyl)methanone]	≤ 0.0501 µM
N#Cc1ccn(-c2cc(NC(=O)C3CC3)ccc2C(=O)N2CCS(=O)(=O)CC2)n1 [Example 117, N-[3-(3-cyanopyrazol-1-yl)-4-(1,1-dioxo-1,4-thiazinane-4-carbonyl)phenyl]cyclopropanecarboxamide]	1.26 to 6.31 µM
Cc1ccc(-c2cc(NC(=O)C3CC3)ccc2C(=O)N2CCS(=O)(=O)CC2)s1 [Example 25, N-[4-(1,1-dioxo-1,4-thiazinane-4-carbonyl)-3-(5-methylthiophen-2-yl)phenyl]cyclopropanecarboxamide]	0.316 to 1 µM
Cc1nc2cc(N3CCCC3)c(C(=O)N3CCN(C)CC3c3ccccc3)cc2[nH]1 (stereo not shown) [Example 114, (4-methyl-2-phenylpiperazin-1-yl)-(2-methyl-6-pyrrolidin-1-yl-3H-benzimidazol-5-yl)methanone]	> 6.31 µM

SMILES	Ki
Cc1cnc(-c2ccc(C(=O)N3CCC(F)(F)CC3)c(-c3ccn(C(C)C)n3)c2)[nH]1 [Example 87, (4,4-difluoro-1-piperidyl)-[2-(1-isopropylpyrazol-3-yl)-4-(5-methyl-1H-imidazol-2-yl)phenyl]methanone]	0.0631 to 0.251 µM
Cc1cc(Nc2ccc(C(=O)N3CCN(C)CC3c3ccccc3)c(N3CCCC3)c2)on1 (racemic) [Example 18, [4-[(3-methyl-1,2-oxazol-5-yl)amino]-2-pyrrolidin-1-ylphenyl]-(4-methyl-2-phenylpiperazin-1-yl)methanone]	1.26 to 6.31 µM
Cc1nnc(-c2ccc(C(=O)N3CC4(C3)CC(F)(F)C4)c(-c3ccn(C(C)C)n3)c2)[nH]1 [Example 52, (6,6-difluoro-2-azaspiro[3.3]heptan-2-yl)-[2-(1-isopropylpyrazol-3-yl)-4-(5-methyl-4H-1,2,4-triazol-3-yl)phenyl]methanone]	≤ 0.0501 µM
Cc1nnc(-c2ccc(C(=O)N3CCC(F)(F)CC3)c(-c3ccn(C4COC4)n3)c2)[nH]1 [Example 60, (4,4-difluoro-1-piperidyl)-[4-(5-methyl-4H-1,2,4-triazol-3-yl)-2-[1-(oxetan-3-yl)pyrazol-3-yl]phenyl]methanone]	≤ 0.0501 µM
Cc1nnc(-c2ccc(C(=O)N3CCC(F)(F)CC3)c(-c3cccc(C(C)C)n3)c2)[nH]1 [Example 74]	≤ 0.0501 µM
Cn1ccc(-c2cc(NC(=O)C3CC3)ccc2C(=O)N2CCC(F)(F)CC2)n1 [Example 22, N-[4-(4,4-difluoropiperidine-1-carbonyl)-3-(1-methylpyrazol-3-yl)phenyl]cyclopropanecarboxamide]	0.0631 to 0.251 µM
Cc1nnc(-c2ccc(C(=O)N3CCC(C)CC3)c(-c3cccc(C4CC4)n3)c2)[nH]1 [Example 63, [2-(6-cyclopropyl-2-pyridyl)-4-(5-methyl-4H-1,2,4-triazol-3-yl)phenyl]-(4-methyl-1-piperidyl)methanone]	≤ 0.0501 µM
CN1CCN(C(=O)c2ccc(NC(=O)C3CC3)c(Cl)c2N2CCCC2)C(c2ccccc2)C1 (stereo not shown) [Example 97, N-[2-chloro-4-(4-methyl-2-phenylpiperazine-1-carbonyl)-3-pyrrolidin-1-ylphenyl]cyclopropanecarboxide]	0.316 to 1 µM
Cc1cc(Cl)cc(C2CN(C)CCN2C(=O)c2ccc(NC(=O)C3CC3)cc2N2CCCC2)c1 (single isomer, unassigned) [Example 110b, N-[4-[2S or 2R-(3-chloro-5-methylphenyl)-4-methylpiperazine-1-carbonyl]-3-pyrrolidin-1-ylphenyl]cyclopropanecarboxamide hydrochloride]	1.26 to 6.31 µM
O=C(Nc1ccc(C(=O)N2CCS(=O)(=O)CC2)c(-n2ccc(C(F)F)n2)c1)C1CC1 [Example 116, N-[3-[3-(difluoromethyl)pyrazol-1-yl]-4-(1,1-dioxo-1,4-thiazinane-4-carbonyl)phenyl]cyclopropanecarboxamide]	0.0631 to 0.251 µM
Cc1nnc(-c2ccc(C(=O)N3CCN(C)CC3c3ccccc3)c(N3CCC(C(C)C)C3)c2)[nH]1 (single isomer, unassigned) [Example 125b, (4-methyl-2-phenylpiperazin-1-yl)-[4-(5-methyl-4H-1,2,4-triazol-3-yl)-2-(3-propan-2-ylpyrrolidin-1-yl)phenyl]methanone]	≤ 0.0501 µM
CN1CCN(S(=O)(=O)c2ccc(NC(=O)C3CC3)cc2N2CCCC2)CC1 [Example 103, N-[4-(4-methylpiperazin-1-yl)sulfonyl-3-pyrrolidin-1-ylphenyl]cyclopropanecarboxamide]	1.26 to 6.31 µM
CS(=O)(=O)NC1CCN(C(=O)c2ccc(NC(=O)C3CC3)cc2N2CCCC2)CC1 [Example 105, N-[4-[4-(methanesulfonamido)piperidine-1-carbonyl]-3-pyrrolidin-1-ylphenyl]cyclopropanecarboxamide]	> 6.31 µM
N#Cc1ccc(-c2cc(NC(=O)C3CC3)ccc2C(=O)N2CCS(=O)(=O)CC2)s1 [Example 26, N-[3-(5-cyanothiophen-2-yl)-4-(1,1-dioxo-1,4-thiazinane-4-carbonyl)phenyl]cyclopropanecarboxamide]	1.26 to 6.31 µM
Cc1nnc(-c2ccc(C(=O)N3CCC(C#N)CC3)c(-c3ccn(C(C)C)n3)c2)[nH]1 [Example 120, 1-[2-(1-isopropylpyrazol-3-yl)-4-(5-methyl-4H-1,2,4-triazol-3-yl)benzoyl]piperidine-4-carbonitrile]	0.316 to 1 µM
